# Reference: ChEMBL document CHEMBL3507680, “University of Dundee, Gates Library screen for HepG2 cell viability”
# Assay: Human HepG2 cell viability assay in 384 well format
# Type: toxicity, cell-based
# Set-up: dose 125 nL, time 70.5 hour; concentration not given beside the values
# Conditions: HepG2 cells, read-out: Inhibition
row,SMILES,cytotoxicity at 70.5 h
1,CC(C)(C)c1ccc2c(c1)CCN2C(=O)c1nc(=O)[nH][nH]1,0.34%
2,CC(NC1(CNC(=O)C(C)(C)C#N)CCOCC1)c1ccccc1 (stereo not drawn),15.5%
3,CCCN(CC(=O)N1CCNCC1)C(=O)c1cccc(Cl)c1,-15.8%
4,Cc1nn(C(C)C)c(C)c1S(=O)(=O)Nc1ccc(C(=O)O)cc1,-1.04%
5,O=C(Nc1cnn(Cc2ccc(F)cc2Cl)c1)C1CC1,-3.99%
6,NC(=O)CCOc1ccc(NC(=O)c2ccccc2OC(F)F)cc1,3.32%
7,COc1ccc(-c2nc(CCNC(=O)NC3CCC(O)CC3)co2)cc1 (stereo not drawn),17.3%
8,N#Cc1ccc(CNC(=O)NCCC(=O)NC2CCCC2)c(F)c1,-2.28%
9,CCc1cc(C(=O)NCC2CCN(Cc3cccc(C)n3)C2)on1 (stereo not drawn),-1.06%
10,CC(C)c1ccc(OCCC(=O)N2CCCN(C(N)=O)CC2)cc1,-1.87%
11,CN(Cc1ccccc1)c1ncccc1CNC1CCC1,-2.38%
12,CC(C)c1noc(C(C)N2CCC(c3nc4ccccc4[nH]3)CC2)n1 (stereo not drawn),-7.42%
13,Cc1cc(S(=O)(=O)NCC(O)c2sccc2C)ccc1F (stereo not drawn),-1.45%
14,Cc1nc(CN2CCCC(Nc3ncnc4c3CCC4)C2)no1 (stereo not drawn),-7.99%
15,c1ccc(OCC2CC2)c(CNC2CCc3ncnn3C2)c1 (stereo not drawn),-7.19%
16,CN1CCc2c(C#N)c(NCc3ccccc3)n3cnnc3c2C1,17.9%
17,CCCC1C=CCN1C(=O)c1cc(COc2ccc3c(c2)OCO3)[nH]n1 (stereo not drawn),-11%
18,Cc1cc(C(=O)N2CCCC3(COCCN(c4ccccc4)C3)C2)[nH]n1 (stereo not drawn),-10.7%
19,CC[C@@H](C)[C@@H](N)C(=O)Nc1cccc(-c2cnc(N(C)CCO)nc2)c1,-6.3%
20,CCc1cc(N2CCSCC2)n2nc(C)c(C)c2n1,12.2%
21,CCN(Cc1ccc2c(c1)OCCO2)C(=O)c1ccc(C)[nH]c1=O,-1.79%
22,Cc1cnn(CC2CCCCN2CC(=O)Nc2nncs2)c1 (stereo not drawn),-1.03%
23,c1cc(-c2cncc(C3CCNCC3)n2)n[nH]1,-6.89%

row,SMILES,cytotoxicity at 70.5 h
1,CCOc1cc(C)nc(N2CCN(C(=O)C(C)NC(C)=O)CC2)n1 (stereo not drawn),-1.89%
2,CCc1cnc(C(C)NC(=O)N2CCCN(CC(F)F)CC2)s1 (stereo not drawn),-4.42%
3,COC(=O)N1CCc2ccccc2C1C(=O)NCc1ccncc1 (stereo not drawn),-3.87%
4,CCOCC(=O)N(C)Cc1nc(C(F)(F)F)cs1,20.5%
5,c1cnc(N2CCCC3(CCN(Cc4cccs4)C3)C2)nc1 (stereo not drawn),-6.41%
6,CC(=O)NCCNC(=O)Nc1cc(C(C)(C)C)sc1C#N,-1.29%
7,COc1ccc(Cl)cc1Nc1nc(N)c(C(C)=O)s1,-19.7%
8,Cc1nc(N(C)CCN(C)C)c2cnn(C)c2n1,19.9%
9,CC(=O)N1CCC[C@@H](NCc2c[nH]c3ccccc23)[C@@H]1c1ccc(C)s1,-8.53%
10,O=C(C1CC(=O)N(c2n[nH]c3cc(Br)ccc23)C1)N1CCOCC1 (stereo not drawn),-11.9%
11,O=C(NC(c1ccc(Cl)cc1)C(F)(F)F)c1nc(=O)[nH][nH]1 (stereo not drawn),29.9%
12,CC(C)c1nc(O)c2nnn(C[C@@H]3CCCN(Cc4cccs4)C3)c2n1,1.47%
13,CCc1nnc2n1CCN(C(=O)c1cc3c(F)cccc3[nH]1)C2,-6.74%
14,CCc1nc(CN(C)C2CCN(CC(=O)N(C)C)C2)no1 (stereo not drawn),-5.61%
15,CCc1cc(=O)n(CCNC(=O)Nc2ccc(OC(F)(F)F)cc2)cn1,-3.46%
16,Cc1cccc(CN2C(=O)CCC23CCN(C(=O)c2ccco2)CC3)c1,-10.9%
17,CC(C)n1cccc1C(=O)N1CC[C@@H](NC(=O)c2ccccn2)[C@H](O)C1,-14.5%
18,CC(C)C1CN(S(=O)(=O)C2CC2)CCCN1Cc1ccc(F)cc1 (stereo not drawn),-3.51%
19,COc1c(CNCc2ccc(OCC(N)=O)cc2)c(C)nn1C,7.56%
20,CN1CC(C(=O)NCc2cccnc2-n2cccn2)CC1=O (stereo not drawn),-6.03%
21,c1ccc(C(Cn2cnnc2)N2CCOCC2)nc1 (stereo not drawn),0.586%
22,CCc1ncnc2c1CCN(S(=O)(=O)CC)CC2,-7.89%
23,COCc1cc(N2CCOC(c3ccc(Cl)c(Cl)c3)C2)ncn1 (stereo not drawn),-12.1%

row,SMILES,cytotoxicity at 70.5 h
1,CCN(CC)S(=O)(=O)c1ccc(NC(=O)C(C)(C)C)cc1,-4.91%
2,CN1CCOC(c2cncc(CCC(=O)N(C)C)n2)C1 (stereo not drawn),-2.29%
3,CC1COc2ccccc2N1C(=O)c1ccc(=O)n(C)c1 (stereo not drawn),22.1%
4,Fc1ccc(CN2CCO[C@H]3[C@H](OCC4CCCC4)CC[C@@H]32)cc1,-9.77%
5,CCn1cncc1CN(Cc1ccc(OC)cc1OC)CC1CCCO1 (stereo not drawn),-3.49%
6,Cc1ccccc1CC(=O)N1CCc2c(ncnc2N2CCOCC2)C1,13.5%
7,CCOCC1CC2(CCN(C(=O)c3cscn3)CC2)CO1 (stereo not drawn),-9.28%
8,Cn1cnnc1CNC(=O)CCCOc1ccccc1Cl,-14.3%
9,CN1CCCC1CCn1ccnc1-c1nc(-c2ccccc2)no1 (stereo not drawn),16.5%
10,COCc1ccccc1CNC(=O)CN1CCCC1c1noc(C)n1 (stereo not drawn),-2.27%
11,CC(=O)N1CCC2(CC1)CNc1c(F)cccc12,-6.53%
12,c1ccc(COC[C@H]2CC[C@H]3[C@H](CCN3c3ncccn3)O2)nc1,-3.8%
13,COc1ccc(-c2cc3nc(CCNC(=O)C4CC4)nn3cn2)cc1,16.8%
14,CN(C)C(=O)N1CCN(Cc2cnc(-c3ccsc3)s2)CC1,-11.7%
15,CC(C)(NCCCOc1ccc(C#N)cc1)c1nccs1,-1.99%
16,CC(NC(=O)Nc1cc(F)cc(F)c1)c1nc[nH]n1 (stereo not drawn),-5.9%
17,Cc1n[nH]c(C2CN(CC(=O)NCCc3ccsc3)CCO2)n1 (stereo not drawn),-1.23%
18,CO[C@H]1CN(C(C)C)C[C@@H]1NC(=O)Nc1cccc(SC)c1,49.1%
19,COCCN1CCN(CC(O)c2cc(OC)ccc2OC)CC1 (stereo not drawn),-6.61%
20,CC(=O)N1CCCN(C(C(=O)O)c2cccc(C)c2C)CC1 (stereo not drawn),-12.3%
21,Cc1ccc(NC2CCN(C(=O)Cc3ccc(C)s3)CC2)nn1,-7.07%
22,COc1ccc(CCCNCc2c(C)nn(C)c2N(C)C)cc1OC,4.5%
23,Cn1nccc1-c1ncc2c(c1C(=O)O)CCN(Cc1ccccc1)C2,11.6%

row,SMILES,cytotoxicity at 70.5 h
1,CCc1nc(N)nc(N2CCCC3(CCOCC3)C2)c1C,-7.63%
2,CC(C)[C@H](NS(C)(=O)=O)C(=O)NCc1cc(-c2ccco2)nn1C,7.38%
3,CC(C)COC(C)C(=O)NCc1ccc(F)cc1 (stereo not drawn),-19.1%
4,Cc1cc(CN(C2CC2)C(C)C(C)C)on1 (stereo not drawn),1.68%
5,CCN1CCCC1CNCc1cc2cc3c(cc2[nH]c1=O)OCCO3 (stereo not drawn),-1.38%
6,Cc1cccc(S(=O)(=O)N2C[C@@H]3C[C@@H](c4nnc(C)[nH]4)O[C@@H]3C2)c1,-1.93%
7,Cc1noc(C)c1CN1C[C@@H](NC(=O)N(C)C)[C@H](C(C)C)C1,-6.75%
8,Cc1cccc(CNCC2COC3(CCCCC3)O2)c1C (stereo not drawn),34.7%
9,Cc1nc(NC(=O)COCC(F)(F)F)ccc1Br,1.69%
10,CC(=O)N1CCO[C@@H]2CN(Cc3cccc(Cl)c3)C[C@@H]2C1,-2.75%
11,COCC(=O)Nc1cnn(COc2ccc(F)cc2Cl)c1,2.16%
12,CNC(=O)CS(=O)(=O)Cc1coc(-c2cccc(F)c2)n1,-8.64%
13,CN(C)CC1(O)CCN(C(=O)c2cnc(CN3CCCC3)s2)C1 (stereo not drawn),0.326%
14,Cc1ccc(C(=O)N2CCN(c3ncnc4nc(N)ccc34)CC2)cc1,20.2%
15,CC(C)NC(=O)COc1cccc(-c2nc(C(C)C)no2)c1,20.9%
16,Cc1nc(N2CCOCC2)nc2c1CCN(C(=O)N1CCCC1)CC2,-2.06%
17,COc1cccc(CN2CC[C@H](c3nnc(-c4ccco4)o3)C2)c1,10.6%
18,NC(=O)C1CCN(C(=O)c2cc(Br)ccc2-n2cnnn2)CC1,27.7%
19,O=C(c1ccccc1)N1CCOC2(CCN(Cc3cccs3)CC2)C1,12.2%
20,CCc1nsc(NC2CC(=O)N(C3CC3)C2)n1 (stereo not drawn),-0.811%
21,O=C(CN1CC(c2nc(-c3ccco3)no2)C1)NCCc1ccccc1,-11.2%
22,COc1cc(NC(=O)N(C)CCC2CC2)ncn1,19.9%
23,CCOCC(=O)Nc1nccn1Cc1ccc(Br)cc1,-5.58%

row,SMILES,cytotoxicity at 70.5 h
1,O=C(NCCc1cnccn1)C1(N2CCCCC2)Cc2ccccc2C1,-8.18%
2,CC(COc1ccccc1)NS(C)(=O)=O (stereo not drawn),-1.8%
3,CCC1=N[C@@]2(CC[C@@H]3CN(C(=O)Nc4ccccc4)C[C@@H]32)C(=O)N1CC,-85.5%
4,CN(Cc1nnc(C2CC2)o1)C1CCN(CCc2cccs2)C1 (stereo not drawn),30.4%
5,O=C(NC1(c2nnn(CCO)n2)CCCC1)c1ccccc1,-1.16%
6,Cc1nc2ccccc2nc1NCc1cccc(OCC2CCCO2)c1 (stereo not drawn),0.538%
7,COc1c(C2CCCN2C(=O)c2ccoc2)c(C)nn1C (stereo not drawn),13.3%
8,COCCCN(Cc1ccccn1)Cc1ccnn1C1CCCCO1 (stereo not drawn),13.4%
9,c1ccc(NC[C@@H]2CCC[C@@H]3CN(Cc4nccs4)C[C@@H]32)nc1,-0.385%
10,OC(CN1CCN(Cc2nnc(C3CC3)o2)CC1)c1ccccc1 (stereo not drawn),-20.3%
11,CCS(=O)(=O)N1CCc2nc(N3CCCC3)nc(N(C)C)c2CC1,24.9%
12,COc1cccc(C2CCCN2Cc2nnnn2C2CC2)c1 (stereo not drawn),-3.76%
13,COc1cc(N2C[C@H]3CN(CCN4CCCC4)C(=O)[C@H]3C2)ncn1,-7.36%
14,Cc1ccccc1CN1CCN(Cc2nccn2C)CC1,-8.12%
15,CCc1cnc(N2CC[C@H]3[C@@H]2CCC(=O)N3c2ccccc2)nc1,14.1%
16,CCc1nn(C)c(CC)c1CNC(=O)Nc1cccc([S+](C)[O-])c1 (stereo not drawn),14.6%
17,CN1CCN(c2ccc(NC(=O)c3ccccn3)c(C(F)(F)F)c2)CC1,-5.99%
18,CSCCCNC(=O)c1coc(Cn2cnc3ccccc32)n1,-6.75%
19,O=C1CC(NS(=O)(=O)N2CCOCC2)CN1Cc1ccc(F)cc1 (stereo not drawn),-2.75%
20,CN(Cc1cnn(C)c1)C(=O)C(c1ccccc1)N1CCSCC1 (stereo not drawn),-9.84%
21,CNC(=O)CN1CCC(CN(C)Cc2ccccc2N(C)C)CC1,1.48%
